Tests used:
Assay in all cases: relative viability (nuclei count vs DMSO), 5 days (fraction); higher = more cells survive
XMD8-85 = compound: CN1CCN(CC1)C2=CC(=C(C=C2)NC3=NC=C4C(=N3)N(C5=CC=CC=C5C(=O)N4C)C)OC [XMD8-85]
Summary of the method: (§1)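 Viability was defined as treated-well nuclei divided by vehicle-well nuclei, with the median taken over replicate plates. Cells from lung cancer lines sat overnight at 37 °C in 1536-well plates, received five √10-spaced library-drug doses by pinning on vehicle-anchored plates, and grew 5 days without medium change before one-step fixation, permeabilisation and Hoechst staining, 4× imaging and MetaXpress nuclear counts. Only plates with control CV under 25% and at least one doubling were kept.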

4EGI-1 = compound: O=C(O)C(Cc1ccccc1[N+](=O)[O-])=NNc1nc(-c2ccc(Cl)c(Cl)c2)cs1 (mixture of isomers) [4EGI-1]
Summary of the method: as §1

XMD8-85 + Alpelisib = compound: CN1CCN(CC1)C2=CC(=C(C=C2)NC3=NC=C4C(=N3)N(C5=CC=CC=C5C(=O)N4C)C)OC [XMD8-85] + Cc1nc(NC(=O)N2CCC[C@H]2C(N)=O)sc1-c1ccnc(C(C)(C)C(F)(F)F)c1 [Alpelisib] (partner 2 µM)
Summary of the method: (§2)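 For relative viability, nuclei counts in treated wells were divided by those in vehicle wells. Lung cancer cell lines had been pin-tool dosed in 1536-well plates the day after seeding and cultured for 5 days, then fixed and stained in one step (final 0.05% Triton X-100, 1% formaldehyde, 1 ug/ml Hoechst) and imaged at 4×. Doses were one drug alone or a fixed anchor-drug dose plus five library-drug doses (not always all listed) in √10 steps, and values are duplicate-plate medians.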

4EGI-1 + Pemetrexed = compound: O=C(O)C(Cc1ccccc1[N+](=O)[O-])=NNc1nc(-c2ccc(Cl)c(Cl)c2)cs1 (mixture of isomers) [4EGI-1] + Nc1nc2[nH]cc(CCc3ccc(C(=O)N[C@@H](CCC(=O)O)C(=O)O)cc3)c2c(=O)[nH]1 [Pemetrexed] (partner 0.2 µM)
Summary of the method: as §2

Cell Line	relative viability (XMD8-85; 0.08 µM)	relative viability (XMD8-85; 0.253 µM)	relative viability (XMD8-85; 0.8 µM)	relative viability (XMD8-85; 2.53 µM)	relative viability (XMD8-85; 8 µM)	relative viability (4EGI-1; 0.5 µM)	relative viability (4EGI-1; 1.581 µM)	relative viability (4EGI-1; 5 µM)	relative viability (4EGI-1; 15.81 µM)	relative viability (4EGI-1; 50 µM)	relative viability (XMD8-85 + Alpelisib; first compound 0.08 µM)	relative viability (XMD8-85 + Alpelisib; first compound 0.253 µM)	relative viability (XMD8-85 + Alpelisib; first compound 0.8 µM)	relative viability (XMD8-85 + Alpelisib; first compound 2.53 µM)	relative viability (4EGI-1 + Pemetrexed; first compound 0.5 µM)	relative viability (4EGI-1 + Pemetrexed; first compound 1.581 µM)	relative viability (4EGI-1 + Pemetrexed; first compound 5 µM)	relative viability (4EGI-1 + Pemetrexed; first compound 15.81 µM)	relative viability (4EGI-1 + Pemetrexed; first compound 50 µM)	relative viability (XMD8-85 + Alpelisib; first compound 8 µM)
SK-MES-1	1.03	1.03	0.938	0.951	0.556	1.09	0.944	0.983	0.759	0.691	0.769	0.654	1.03	1.02	0.979	0.713	0.968	0.751	0.24	–
NCI-H1755	1.02	1.08	0.96	1.02	1.03	1.04	1.04	0.957	0.896	0.622	0.981	0.949	0.954	1.04	0.424	0.428	0.417	0.561	0.351	0.896
NCI-H2405	1.02	1.06	1.06	1.01	0.781	1.04	0.819	1.08	1.03	0.984	0.812	0.818	0.833	0.539	1.1	–	1.3	1.05	0.285	0.568
SK-LU-1	0.921	1.07	1.08	1.06	0.96	1.12	1.11	1.14	0.998	0.58	0.924	1.07	1.08	1.01	0.932	1.02	0.992	1.06	0.319	0.855
NCI-H1563	1.06	0.925	0.904	0.951	0.88	1.1	0.875	0.976	0.893	0.625	1.04	0.967	0.882	0.814	0.905	0.221	0.968	0.747	0.81	0.709
PC-14	0.996	0.906	0.984	1.03	0.587	1.01	–	1.05	0.341	0.395	0.784	0.882	0.762	0.993	0.135	–	0.159	0.185	0.0861	0.655
LCLC-103H	0.929	1.03	1.05	1.04	0.88	1.01	0.929	1.01	0.972	0.696	0.88	1.04	0.933	0.961	0.443	0.409	0.474	0.435	0.477	0.728
NCI-H2009	0.967	0.987	1	0.97	0.605	1.05	1.02	1.07	1.02	0.24	1.17	1.03	1.14	1.03	1.01	1	1.04	0.951	0.805	0.586
NCI-H596	0.946	0.942	1.03	0.987	0.696	1.19	0.788	1.14	0.954	0.594	–	0.558	0.511	0.411	0.535	0.458	0.51	0.455	0.43	0.403
HARA	0.95	0.976	0.902	1.03	0.611	1.07	1	1.07	0.765	0.257	0.932	0.675	0.911	0.445	0.266	0.273	0.333	0.238	0.223	0.27
UMC-11	1.03	0.982	1.11	0.964	0.739	1.13	1.11	1.01	0.986	0.403	0.954	0.931	1	0.939	0.841	0.792	0.863	0.805	0.52	0.387
NCI-H460	0.998	1.01	1.02	0.997	0.651	1.03	–	1.06	0.847	0.25	0.447	0.442	0.688	0.401	0.0637	0.0738	0.0637	0.0604	0.0616	0.147
NCI-H322M	0.906	0.937	0.939	0.97	0.621	0.94	–	1.05	0.75	0.5	0.77	–	0.819	0.784	0.576	–	0.643	0.618	0.377	0.782
NCI-H1734	0.946	0.988	1.11	1.08	0.758	1.06	0.949	1.14	0.831	0.353	0.652	0.678	0.745	0.658	0.403	0.433	0.464	0.441	0.362	0.576
NCI-H2170	1.03	1.09	1.01	1.12	0.993	0.986	0.942	0.992	0.853	0.606	0.759	0.812	–	0.816	0.259	0.256	0.247	0.256	0.265	0.495
HCC-15	1.01	1.02	1.08	1.06	0.849	0.982	1.02	1.02	0.947	0.583	0.934	0.851	0.997	0.894	0.231	0.22	0.204	0.198	0.212	0.661

Cell Line	relative viability (XMD8-85; 0.08 µM)	relative viability (XMD8-85; 0.253 µM)	relative viability (XMD8-85; 0.8 µM)	relative viability (XMD8-85; 2.53 µM)	relative viability (XMD8-85; 8 µM)	relative viability (4EGI-1; 0.5 µM)	relative viability (4EGI-1; 1.581 µM)	relative viability (4EGI-1; 5 µM)	relative viability (4EGI-1; 15.81 µM)	relative viability (4EGI-1; 50 µM)	relative viability (XMD8-85 + Alpelisib; first compound 0.08 µM)	relative viability (XMD8-85 + Alpelisib; first compound 0.253 µM)	relative viability (XMD8-85 + Alpelisib; first compound 0.8 µM)	relative viability (XMD8-85 + Alpelisib; first compound 2.53 µM)	relative viability (4EGI-1 + Pemetrexed; first compound 0.5 µM)	relative viability (4EGI-1 + Pemetrexed; first compound 1.581 µM)	relative viability (4EGI-1 + Pemetrexed; first compound 5 µM)	relative viability (4EGI-1 + Pemetrexed; first compound 15.81 µM)	relative viability (4EGI-1 + Pemetrexed; first compound 50 µM)	relative viability (XMD8-85 + Alpelisib; first compound 8 µM)
NCI-H1651	1.06	0.983	0.978	0.959	0.926	1.03	0.906	1.01	0.95	0.753	0.948	0.951	1.04	0.954	0.599	0.576	0.636	0.52	0.412	0.548
LOU-NH91	0.993	0.97	0.939	1.09	0.734	1.02	–	1	0.764	0.751	0.681	0.758	0.726	0.711	0.431	–	0.387	0.435	0.481	0.616
NCI-H3122	1.09	0.965	1.08	0.972	0.967	0.987	0.918	0.969	0.964	0.683	0.814	0.71	0.954	0.93	0.196	0.192	0.189	0.224	0.175	0.766
NCI-H1395	0.893	0.884	0.889	1.01	0.561	1.02	–	1.2	0.929	0.614	0.927	0.907	0.933	0.965	0.878	–	1.12	0.917	0.421	1.08
HCC-44	1.02	0.948	–	1.02	0.812	0.999	0.507	0.993	0.877	0.695	0.835	0.79	0.852	0.64	0.609	0.634	0.549	0.584	0.593	0.307
EPLC-272H	0.937	1.07	0.885	0.876	0.608	1.07	0.659	1.12	0.713	0.235	–	0.916	0.93	1.01	0.372	0.304	0.322	0.29	0.245	0.624
PC-3 [JPC-3]	1.06	1.03	0.993	1.11	0.942	1.01	0.991	1	–	0.691	1.02	1.05	1.06	1.01	1.09	–	1.21	0.491	0.333	1.01
SW 1573	1.02	1.1	1.08	0.982	–	1.24	0.862	1.03	0.673	0.445	0.917	0.596	0.745	0.615	0.963	0.742	0.794	0.329	0.126	0.663
NCI-H520	0.99	0.975	1.03	1.04	0.813	1.24	0.952	1.16	0.917	0.64	0.891	0.918	0.866	0.854	0.674	0.704	0.677	0.655	0.123	0.515
NCI-H1944	0.873	0.993	1.02	1.22	0.973	1.03	–	0.996	0.738	0.574	0.815	0.791	0.847	0.977	0.683	–	0.668	0.586	0.331	0.746
RERF-LC-KJ	0.992	0.939	1.07	1.13	0.82	1.1	0.629	0.936	0.805	0.637	0.763	0.675	0.957	0.915	0.51	0.351	0.444	0.457	0.431	0.677
NCI-H2085	0.945	0.966	0.995	0.935	0.856	1.06	1.01	1.03	0.799	0.663	0.966	0.917	1.01	0.852	0.979	0.954	0.915	0.646	0.621	0.728
NCI-H661	1	1.01	0.963	1.05	0.903	0.975	0.911	0.974	0.583	0.467	–	0.596	0.551	0.819	0.939	0.834	0.92	0.761	0.334	0.552
NCI-H2228	0.894	1.06	1	0.995	0.604	1.26	1.25	0.939	0.951	0.294	–	0.724	0.78	0.891	0.377	0.472	0.367	0.338	0.164	0.488
CAL-12T	0.936	1.06	0.871	0.908	0.654	1.03	–	0.963	0.878	0.518	1.28	1.3	1.11	0.842	1.21	–	1.25	1.14	0.86	0.658
NCI-H441	1.09	0.92	1.2	1.29	0.801	1.22	0.868	1.13	0.791	0.307	0.837	1.03	0.693	0.714	0.257	0.249	0.276	0.229	0.184	0.698
